Assays:
subjects with insomnia [1] = assay: Polysomnogram measures, double-blinded placebo controlled study of 5 days mifepristone in insomnia; type: in vivo, human; details: for % REM, average / % S1, average / % S2, average / % S3, average / % S4, average / Arousal, average / NUAW, average / Rem Lat, average / Rem density, average / S3 Lat, average / SE (S2, S3, S4), average / SE (S3, S4), average / SPT, average / TST, average / WASO, average: Rx Ave (n = 5)
subjects with insomnia [2] = assay: Actigraphy measures of TST and WASO, outpatient portion of the insomnia study; type: in vivo, human; details: Tx (n = 2)
[3] = 2 Wk Post Tx rel to Baseline, Tx Delta
[4] = 2 Wk Post Tx rel to Baseline, Tx rel to Plac
[5] = Day 5 Tx rel to Baseline, Tx Delta
[6] = Day 5 Tx rel to Baseline, Tx rel to Plac

## CC#C[C@]1(O)CC[C@H]2[C@@H]3CCC4=CC(=O)CCC4=C3[C@@H](c3ccc(N(C)C)cc3)C[C@@]21C [mifepristone, 17-beta-hydroxy-11-beta-(4-dimethyl-aminophenyl)-17-alpha-(1-propynyl)-estra-4,9-dien-3-one]
Subjects with insomnia [1]; [3]
  % REM (percentage REM sleep): 1.63%
  % S1 (percentage stage 1 sleep): −39.19%
  % S2 (percentage stage 2 sleep): −2.68%
  % S3 (percentage stage 3 sleep): 1.09%
  % S4 (percentage stage 4 sleep): −1.48%
  Arousal: 5.2
  NUAW (number of awakenings): 0
  Rem Lat (minutes to first epoch of REM after sleep onset): -4 min
  Rem p: 1.972
  S3 Lat (latency to onset of stage 3 sleep): -0.85 min
  SEB (S2, S3, S4) (total combined minutes of stage 2, 3 and 4 per total sleep minutes): 2.57
  SEC (S3, S4) (total combined minutes of stage 3, 4 per total sleep minutes): 1.19
  SPT: 28.1 min
  TST (total combined minutes of sleep): 38.5 min
  WASO (wake after sleep onset): -10.4 min
Subjects with insomnia [1]; [4]
  % REM (percentage REM sleep): 1.31%
  % S1 (percentage stage 1 sleep): −0.01%
  % S2 (percentage stage 2 sleep): −5.05%
  % S3 (percentage stage 3 sleep): 1.45%
  % S4 (percentage stage 4 sleep): −0.98%
  Arousal: −3.7
  NUAW (number of awakenings): 1.5
  Rem Lat (minutes to first epoch of REM after sleep onset): 39.5 min
  Rem p: 2.73
  S3 Lat (latency to onset of stage 3 sleep): 23.1 min
  SEB (S2, S3, S4) (total combined minutes of stage 2, 3 and 4 per total sleep minutes): −1.34
  SEC (S3, S4) (total combined minutes of stage 3, 4 per total sleep minutes): 2.02
  SPT: 29.55 min
  TST (total combined minutes of sleep): 21.65 min
  WASO (wake after sleep onset): 7.85 min
Subjects with insomnia [1]; [5]
  % REM (percentage REM sleep): −9.33%
  % S1 (percentage stage 1 sleep): −38.34%
  % S2 (percentage stage 2 sleep): 6.44%
  % S3 (percentage stage 3 sleep): 0.76%
  % S4 (percentage stage 4 sleep): −0.01%
  Arousal: 0.9
  NUAW (number of awakenings): 3.3
  Rem Lat (minutes to first epoch of REM after sleep onset): 61.15 min
  Rem p: −0.826
  S3 Lat (latency to onset of stage 3 sleep): 7.05 min
  SEB (S2, S3, S4) (total combined minutes of stage 2, 3 and 4 per total sleep minutes): −2.13
  SEC (S3, S4) (total combined minutes of stage 3, 4 per total sleep minutes): −7.3
  SPT: 28.69 min
  TST (total combined minutes of sleep): 17.05 min
Subjects with insomnia [1]; Day 5 Tx rel to Baseline, Tx Delta, 600 mg/day in the morning, 5 days
  WASO (wake after sleep onset): 16.4 min
Subjects with insomnia [1]; [6]
  % REM (percentage REM sleep): −9.69%
  % S1 (percentage stage 1 sleep): 1.76%
  % S2 (percentage stage 2 sleep): 3.9%
  % S3 (percentage stage 3 sleep): 0.71%
  % S4 (percentage stage 4 sleep): 0.42%
  Arousal: −3.8
  NUAW (number of awakenings): 5
  Rem Lat (minutes to first epoch of REM after sleep onset): 99.6 min
  Rem p: 0.654
  S3 Lat (latency to onset of stage 3 sleep): 19.35 min
  SEB (S2, S3, S4) (total combined minutes of stage 2, 3 and 4 per total sleep minutes): −6.85
  SEC (S3, S4) (total combined minutes of stage 3, 4 per total sleep minutes): −7.45
  SPT: 29.39 min
  TST (total combined minutes of sleep): -3.75 min
  WASO (wake after sleep onset): 37.85 min
Subjects with insomnia [1]; T2
  % REM, average: 11.62%
  % S1, average: 15.48%
  % S2, average: 60.26%
  % S3, average: 7.63%
  % S4, average: 4.36%
  Arousal, average: 105.70
  NUAW, average: 27.60
  Rem Lat, average: 137.95 min
  Rem density, average: 7.16
  S3 Lat, average: 24.80 min
  SE (S2, S3, S4), average: 83.34
  SE (S3, S4), average: 24.94
  SPT, average: 469.24 min
  TST, average: 390.65 min
  WASO, average: 83.35 min
Subjects with insomnia [1]; T3
  % REM, average: 22.58%
  % S1, average: 14.63%
  % S2, average: 51.14%
  % S3, average: 7.96%
  % S4, average: 2.89%
  Arousal, average: 110.00
  NUAW, average: 24.30
  Rem Lat, average: 72.80 min
  Rem density, average: 9.95
  S3 Lat, average: 16.90 min
  SE (S2, S3, S4), average: 88.04
  SE (S3, S4), average: 33.43
  SPT, average: 468.65 min
  TST, average: 412.10 min
  WASO, average: 56.55 min
Subjects with insomnia [1]; at 2 weeks post treatment
  total sleep time (TST), in words: increased
Subjects with insomnia [1]; most acutely during active treatment
  REM latency (RL), in words: increased
Subjects with insomnia [2]; D7AV
  D7AV-smin (actigraphy TST): 458.86 min
  D7AV-waso (actigraphy WASO): 45.14
Subjects with insomnia [2]; D20AV
  D20AV-smin (actigraphy TST): 448.40 min
  D20AV-waso (actigraphy WASO): 51.70
Subjects with insomnia [2]; D26AV
  D26AV-smin (actigraphy TST): 473.08 min
  D26AV-waso (actigraphy WASO): 31.67
